According to BindingDB's records for doi:10.1016/j.bmcl.2004.10.029 (Glaxosmithkline, 2005):

Tests used:
[1] = molecular target: T1, Dimer of Gag-Pol polyprotein [501-599,Q508K,L534I,L564I,C568A,C596A] (Human immunodeficiency virus 1, UniProt P03367, C568A/C596A/L534I/L564I/Q508K); assay: Protease Inhibition Assay; conditions: pH 6.4; 25 °C
T1 construct: 501-599
Procedure: The Ki values were determined using fluorogenic substrate, 2-(aminobenzoyl)-Thr-Ile-Nle-Phe(p-NO2)-Gln-ArgNH2. A standard curve relating changes in fluorescent intensity to changes in concentration of product was used to convert fluorescent changes into molar velocities. The amount of cleavage was determined by HPLC.

[2] = molecular target: T1, Dimer of Gag-Pol polyprotein [501-599,Q508K,L534I,L564I,C568A,C596A]; assay: Protease Inhibition Assay; conditions: pH 6.4; 25 °C; remark: listed apart in the source

| SMILES | Ki [1] | IC50 [2] |
| --- | --- | --- |
| O=C(N[C@H]1c2ccccc2C[C@H]1O)[C@H](Cc1ccc(OCCOC(=O)N2CCOCC2)cc1)C[C@H](O)CN1C(=O)[C@@H](Cc2ccccc2)C[C@@H]1Cc1ccccc1 [2-{4-[(2R)-2-[(2S)-3-[(3S,5R)-3,5-dibenzyl-2-oxopyrrolidin-1-yl]-2-hydroxypropyl]-2-{[(1S,2R)-2-hydroxy-2,3-dihydro-1H-inden-1-yl]carbamoyl}ethyl]phenoxy}ethyl morpholine-4-carboxylate] | 0.05 nM | 240 nM |
| O=C(N[C@H]1c2ccccc2C[C@H]1O)[C@H](Cc1ccc(Cc2ccccc2)cc1)C[C@H](O)CN1C(=O)[C@@H](Cc2ccccc2)C[C@@H]1Cc1ccccc1 [(2R,4S)-2-[(4-benzylphenyl)methyl]-5-[(3S,5R)-3,5-dibenzyl-2-oxopyrrolidin-1-yl]-4-hydroxy-N-[(1S,2R)-2-hydroxy-2,3-dihydro-1H-inden-1-yl]pentanamide] | 0.11 nM | 920 nM |
| O=C(N[C@H]1c2ccccc2C[C@H]1O)[C@H](Cc1ccccc1)C[C@H](O)CN1C(=O)[C@@H](Cc2ccccc2)C[C@@H]1Cc1ccc(Cc2ccccc2)cc1 [(2R,4S)-2-benzyl-5-[(3S,5R)-3-benzyl-5-[(4-benzylphenyl)methyl]-2-oxopyrrolidin-1-yl]-4-hydroxy-N-[(1S,2R)-2-hydroxy-2,3-dihydro-1H-inden-1-yl]pentanamide] | 0.13 nM | 550 nM |
| O=C(N[C@H]1c2ccccc2C[C@H]1O)[C@H](Cc1ccccc1)C[C@H](O)CN1C(=O)[C@@H](Cc2ccccc2)C[C@@H]1Cc1ccc(O)cc1 [(2R,4S)-2-benzyl-5-[(3S,5R)-3-benzyl-5-[(4-hydroxyphenyl)methyl]-2-oxopyrrolidin-1-yl]-4-hydroxy-N-[(1S,2R)-2-hydroxy-2,3-dihydro-1H-inden-1-yl]pentanamide] |  | 200 nM |
| O=C(N[C@H]1c2ccccc2C[C@H]1O)[C@H](Cc1ccccc1)C[C@H](O)CN1C(=O)[C@@H](Cc2ccccc2)C[C@@H]1Cc1ccc(OCCO)cc1 [(2R,4S)-2-benzyl-5-[(3S,5R)-3-benzyl-5-{[4-(2-hydroxyethoxy)phenyl]methyl}-2-oxopyrrolidin-1-yl]-4-hydroxy-N-[(1S,2R)-2-hydroxy-2,3-dihydro-1H-inden-1-yl]pentanamide] | 0.3 nM | 480 nM |
| NC(=O)COc1ccc(C[C@H](C[C@H](O)CN2C(=O)[C@@H](Cc3ccccc3)C[C@@H]2Cc2ccccc2)C(=O)N[C@H]2c3ccccc3C[C@H]2O)cc1 [(2R,4S)-2-{[4-(carbamoylmethoxy)phenyl]methyl}-5-[(3S,5R)-3,5-dibenzyl-2-oxopyrrolidin-1-yl]-4-hydroxy-N-[(1S,2R)-2-hydroxy-2,3-dihydro-1H-inden-1-yl]pentanamide] | 0.07 nM | 360 nM |
| COCCOCCOc1ccc(C[C@H](C[C@H](O)CN2C(=O)[C@@H](Cc3ccccc3)C[C@@H]2Cc2ccccc2)C(=O)N[C@H]2c3ccccc3C[C@H]2O)cc1 [(2R,4S)-5-[(3S,5R)-3,5-dibenzyl-2-oxopyrrolidin-1-yl]-4-hydroxy-N-[(1S,2R)-2-hydroxy-2,3-dihydro-1H-inden-1-yl]-2-({4-[2-(2-methoxyethoxy)ethoxy]phenyl}methyl)pentanamide] | 0.02 nM | 93 nM |
| CN1CCN(C(=O)COc2ccc(C[C@H](C[C@H](O)CN3C(=O)[C@@H](Cc4ccccc4)C[C@@H]3Cc3ccccc3)C(=O)N[C@H]3c4ccccc4C[C@H]3O)cc2)CC1 [(2R,4S)-5-[(3S,5R)-3,5-dibenzyl-2-oxopyrrolidin-1-yl]-4-hydroxy-N-[(1S,2R)-2-hydroxy-2,3-dihydro-1H-inden-1-yl]-2-({4-[2-(4-methylpiperazin-1-yl)-2-oxoethoxy]phenyl}methyl)pentanamide] | 0.05 nM | 130 nM |
| O=C(N[C@H]1c2ccccc2C[C@H]1O)[C@H](Cc1ccc(OCC(=O)N2CCOCC2)cc1)C[C@H](O)CN1C(=O)[C@@H](Cc2ccccc2)C[C@@H]1Cc1ccccc1 [(2R,4S)-5-[(3S,5R)-3,5-dibenzyl-2-oxopyrrolidin-1-yl]-4-hydroxy-N-[(1S,2R)-2-hydroxy-2,3-dihydro-1H-inden-1-yl]-2-({4-[2-(morpholin-4-yl)-2-oxoethoxy]phenyl}methyl)pentanamide] | 0.02 nM | 63 nM |
| O=C(N[C@H]1c2ccccc2C[C@H]1O)[C@H](Cc1ccc(OCCN2CCOCC2)cc1)C[C@H](O)CN1C(=O)[C@@H](Cc2ccccc2)C[C@@H]1Cc1ccccc1 [(2R,4S)-5-[(3S,5R)-3,5-dibenzyl-2-oxopyrrolidin-1-yl]-4-hydroxy-N-[(1S,2R)-2-hydroxy-2,3-dihydro-1H-inden-1-yl]-2-({4-[2-(morpholin-4-yl)ethoxy]phenyl}methyl)pentanamide] | 0.14 nM | 83 nM |
| O=C(N[C@H]1c2ccccc2C[C@H]1O)[C@H](Cc1ccc(O)cc1)C[C@H](O)CN1C(=O)[C@@H](Cc2ccccc2)C[C@@H]1Cc1ccccc1 [(2R,4S)-5-[(3S,5R)-3,5-dibenzyl-2-oxopyrrolidin-1-yl]-4-hydroxy-N-[(1S,2R)-2-hydroxy-2,3-dihydro-1H-inden-1-yl]-2-[(4-hydroxyphenyl)methyl]pentanamide] | 0.06 nM | 320 nM |
| O=C(N[C@H]1c2ccccc2C[C@H]1O)[C@H](Cc1ccc(OCCO)cc1)C[C@H](O)CN1C(=O)[C@@H](Cc2ccccc2)C[C@@H]1Cc1ccccc1 [(2R,4S)-5-[(3S,5R)-3,5-dibenzyl-2-oxopyrrolidin-1-yl]-4-hydroxy-N-[(1S,2R)-2-hydroxy-2,3-dihydro-1H-inden-1-yl]-2-{[4-(2-hydroxyethoxy)phenyl]methyl}pentanamide] | 0.02 nM | 94 nM |
| O=C(N[C@H]1c2ccccc2C[C@H]1O)[C@H](Cc1ccc(OCc2ccccn2)cc1)C[C@H](O)CN1C(=O)[C@@H](Cc2ccccc2)C[C@@H]1Cc1ccccc1 [(2R,4S)-5-[(3S,5R)-3,5-dibenzyl-2-oxopyrrolidin-1-yl]-4-hydroxy-N-[(1S,2R)-2-hydroxy-2,3-dihydro-1H-inden-1-yl]-2-{[4-(pyridin-2-ylmethoxy)phenyl]methyl}pentanamide] | 0.07 nM | 380 nM |
| O=C(N[C@H]1c2ccccc2C[C@H]1O)[C@H](Cc1ccccc1)C[C@H](O)CN1C(=O)[C@@H](Cc2ccccc2)C[C@@H]1Cc1ccc(OCCN2CCOCC2)cc1 [pyrrolidinone based inhibitor 1g] | 1.3 nM | 960 nM |
| O=C(N[C@H]1c2ccccc2C[C@H]1O)[C@H](Cc1ccccc1)C[C@H](O)CN1C(=O)[C@@H](Cc2ccccc2)C[C@@H]1Cc1ccc(OCC(=O)N2CCOCC2)cc1 [pyrrolidinone based inhibitor 1k] | 0.1 nM | 200 nM |
| O=C(N[C@H]1c2ccccc2C[C@H]1O)[C@H](Cc1ccccc1)C[C@H](O)CN1C(=O)[C@@H](Cc2ccccc2)C[C@@H]1Cc1ccccc1 [pyrrolidinone scaffold 8b] |  | 0.05 nM |
